Measurements published in US20140061616A1, “ORGANIC SEMICONDUCTOR MATERIAL, COATING LIQUID CONTAINING THE MATERIAL, AND ORGANIC THIN FILM TRANSISTOR” (IDEMITSU KOSAN CO., LTD., priority 2010, published 2014).

Tests used:
[1] = Storage stability of organic semiconductor material: carrier mobility after storage in air; assay type: physicochemical; settings: deposited transistor stored for 9 days in air
Description: An organic thin film transistor was obtained in the same manner as in Example 17, except that pentacene (see the following formula) was used as the material for forming the organic semiconductor layer instead of the compound (A-3).
The field-effect mobility μ of holes in the organic thin film transistor was calculated in the same manner as in Example 17, and found to be […]. The carrier mobility calculated after storing the organic thin film transistor for 9 days in air was […].

[2] = Evaluation of solubility: temperature of toluene required to dissolve the compound at 0.4 mass %; assay type: physicochemical; settings: concentration of 0.4 mass %

Dissolution temperature (° C.) in toluene [2] | Structure (SMILES) | carrier mobility after storage [1] | Dissolution temperature (° C.) in toluene ([2]; listed as comparative compound (2)) | deterioration in carrier mobility on storage [1]
– | c1ccc2cc3cc4cc5ccccc5cc4cc3cc2c1 [pentacene] | 1.3×10^3 cm^2/Vs | – | –
90 °C | CCCCCCCCCCCCc1ccc2c(c1)sc1c2ccc2c1ccc1c3ccc(CCCCCCCCCCCC)cc3sc12 [Comparative compound (1)] | – | – | –
80 °C | CCCCCc1ccc2c(c1)sc1c2ccc2c1ccc1c3ccc(CCCCC)cc3sc12 [Compound A-3] | 1.1 cm^2/Vs | – | a deterioration in carrier mobility was not observed

Structure (SMILES) | Dissolution temperature (° C.) in toluene [2] | carrier mobility after storage [1] | Dissolution temperature (° C.) in toluene ([2]; listed as comparative compound (2)) | deterioration in carrier mobility on storage [1]
c1ccc2c(c1)sc1c2ccc2c1ccc1c3ccccc3sc12 [Comparative compound (2)] | Insoluble | – | not sufficiently dissolved | –
